Columns and labels:
ALOMY [1] = assay: Pre-emergence action against ALOMY, 1280 g/ha; format: in vivo, Alopecurus myosuroides; conditions: visual scoring after about 3 weeks vs untreated controls, 100% = plants have died, 0% = like control plants
Summary of the method: (§1)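 Weed seeds sown in sandy loam in pots, covered with soil; compound as WP or EC applied to soil surface as aqueous suspension/emulsion with 0.5% additive at 600 L/ha water. Greenhouse, good growth conditions; visual % damage vs untreated controls after about 3 weeks (100% = plants dead, 0% = like control).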

VERPE = assay: Pre-emergence action against VERPE, 1280 g/ha; format: in vivo, Veronica persica; conditions: scored visually after about 3 weeks vs untreated controls (100% = plants have died)
Summary of the method: as §1

ECHGC = assay: Pre-emergence action at 320 g/ha against ECHGC; format: in vivo, Echinochloa crus-galli; conditions: visual scoring after about 3 weeks vs untreated controls
Summary of the method: (§2)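 Weed and crop seeds sown in pots and covered with soil; WP or EC formulations sprayed pre-emergence onto the soil surface at 320 g/ha with 0.5% additive in 600 l/ha water. Kept in greenhouse; after about 3 weeks activity scored visually as % versus untreated controls (100% = plants dead, 0% = as control).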

LOLRI [2] = assay: Pre-emergence action at 320 g/ha against LOLRI; format: in vivo, Lolium rigidum; conditions: visual scoring after about 3 weeks vs untreated controls
Summary of the method: as §2

MATIN [3] = assay: Pre-emergence action at 320 g/ha against MATIN; format: in vivo, Tripleurospermum inodorum (Matricaria inodora); conditions: visual scoring after about 3 weeks vs untreated controls
Summary of the method: as §2

VIOTR [4] = assay: Pre-emergence action at 320 g/ha against VIOTR; format: in vivo, Viola tricolor; conditions: dosage 320 g/ha
Summary of the method: as §2

DIGSA = assay: Post-emergence action against DIGSA, 1.28 kg/ha; format: in vivo, Digitaria sanguinalis; conditions: dosage 1280 g/ha, visual rating about 3 weeks after treatment vs untreated controls
Summary of the method: (§3)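 Greenhouse pot test, sandy loam; weeds sprayed post-emergence at one-leaf stage (2–3 weeks after sowing) with WP or EC formulation plus 0.5% additive, 600 l/ha water. Visual rating after about 3 weeks versus untreated controls, 100% = plants dead, 0% = like control.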

ECHCG = assay: Post-emergence action against ECHCG, 1.28 kg/ha; format: in vivo, Echinochloa crus-galli; conditions: dosage 1280 g/ha, visual rating about 3 weeks after treatment vs untreated controls
Summary of the method: as §3

LOLRI [5] = assay: Post-emergence action against LOLRI, 1.28 kg/ha; format: in vivo, Lolium rigidum; conditions: dosage 1280 g/ha, visual rating about 3 weeks after treatment vs untreated controls
Summary of the method: as §3

ABUTH [6] = assay: Post-emergence action against ABUTH, 1.28 kg/ha; format: in vivo, Abutilon theophrasti; conditions: dosage 1280 g/ha, visual rating about 3 weeks after treatment vs untreated controls (100% = plants died)
Summary of the method: as §3

MATIN [7] = assay: Post-emergence action against MATIN, 1.28 kg/ha; format: in vivo, Tripleurospermum inodorum (Matricaria inodora); conditions: dosage 1280 g/ha, visual rating about 3 weeks after treatment vs untreated controls (100% = plants died)
Summary of the method: as §3

ALOMY [8] = assay: Post-emergence action against ALOMY, 320 g/ha; format: in vivo, Alopecurus myosuroides; conditions: dosage 320 g/ha, visual rating about 3 weeks after treatment vs untreated controls (100% = plants died)
Summary of the method: (§4)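 Activity is a visual rating against untreated controls, with 0% like control and 100% dead plants, made about 3 weeks after treatment. Plants grown in sandy loam in the greenhouse received a post-emergence spray at the one-leaf stage of 320 g/ha, formulated as WP or EC with 0.5% additive in 600 l/ha water.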

ABUTH [9] = assay: Post-emergence action at 320 g/ha against ABUTH; format: in vivo, Abutilon theophrasti; conditions: visual rating about 3 weeks after treatment vs untreated controls
Summary of the method: as §4

SETVI = assay: Post-emergence action at 320 g/ha against SETVI; format: in vivo, Setaria viridis; conditions: visual rating about 3 weeks after treatment vs untreated controls
Summary of the method: as §4

PHBPU = assay: Post-emergence action at 320 g/ha against PHBPU; format: in vivo; conditions: visual rating about 3 weeks after treatment vs untreated controls
Summary of the method: as §4

VIOTR [10] = assay: Post-emergence action at 320 g/ha against VIOTR; format: in vivo, Viola tricolor; conditions: visual rating about 3 weeks after treatment vs untreated controls
Summary of the method: as §4

SMILES	Pre-emergence action against ALOMY (ALOMY [1])	Pre-emergence action against VERPE (VERPE)	Pre-emergence action against ECHGC in % (ECHGC)	Pre-emergence action against LOLRI in % (LOLRI [2])	Pre-emergence action against MATIN in % (MATIN [3])	Pre-emergence action against VIOTR in % (VIOTR [4])	Post-emergence action against DIGSA (DIGSA)	Post-emergence action against ECHCG (ECHCG)	Post-emergence action against LOLRI (LOLRI [5])	Post-emergence action against ABUTH (ABUTH [6])	Post-emergence action against MATIN (MATIN [7])	Post-emergence action against ALOMY (ALOMY [8])	Post-emergence action against ABUTH in % (ABUTH [9])	Post-emergence action against SETVI in % (SETVI)	Post-emergence action against PHBPU in % (PHBPU)	Post-emergence action against VIOTR in % (VIOTR [10])
COC(=O)COc1nn(-c2ccccc2F)c(-c2ccc(F)nc2)c1C(F)(F)F [VII-031]	100%	100%	90%	100%	100%	100%	100%	100%	100%	90%	100%	100%	90%	90%	90%	90%
COC(=O)COc1nn(-c2ccccc2F)c(-c2cncc(F)c2)c1Br [VII-035]	100%	100%	90%	90%	100%	100%	100%	100%	100%	90%	90%	90%	90%	90%	100%	90%
COC(=O)CCOC(=O)COc1nn(-c2ccccc2F)c(-c2ccc(F)nc2)c1Br [VII-111]	100%	100%	100%	100%	90%	100%	100%	100%	90%	90%	100%	100%	80%	90%	80%	90%

Source: patent US12180187B2, “1-phenyl-5-azinylpyrazolyl-3-oxyalkyl acids and their use for controlling unwanted plant growth” (BAYER AKTIENGESELLSCHAFT, priority 2019, dated 2024)
